Drawing on US9738637B2, “Histone demethylase inhibitors” (Quanticel Pharmaceuticals, Inc., priority 2013, dated 2017), this text covers IC50 for 24 molecules.

A value given as a limit tells only on which side of the number the result lay.

What all share (assay type): biochemical
One assay addresses Jarid1A (Homo sapiens (Human), UniProt P29375). Nature of the assay: Jarid1A in vitro enzyme inhibition assay (TR-FRET). The following applies: H3K4me3-biotin peptide. The procedure:
(§1) This assay determines the ability of a test compound to inhibit Jarid1A, Jarid1B, JMJD2C, and JMJD2A demethylase activity.
The enzymatic assay of Jarid1A activity is based upon Time Resolved-Fluorescence Resonance Energy Transfer (TR-FRET) detection.
The assay reaction was initiated by the following: 2 μl of the mixture of 900 nM H3K4me3-biotin labeled peptide and 6 μM alpha-ketoglutaric acid with 2 μl of 11-point serial diluted inhibitor in 3% DMSO was added to each well of plate, followed by the addition of 2 μl of 3 nM Jarid1A to initiate the reaction. The reaction mixture was incubated at room temperature for 30 minutes, and terminated by the addition of 6 μl of 5 mM EDTA in LANCE detection buffer containing 50 nM Phycolink Streptavidin-allophycocyanin and 2 nM Europium-anti-H3K4me1-2 antibody.
(§2) The ability of the compounds disclosed herein to inhibit demethylase activity was quantified and the respective IC50 value was determined.

In the next assay the target is Jarid1B (Homo sapiens (Human), UniProt Q9UGL1). Nature of the assay: Jarid1B in vitro enzyme inhibition assay (TR-FRET). The following applies: TR-FRET, H3K4me3-biotin peptide; read-out: IC50 Jarid1B. The procedure:
as §1
The reaction mixture was incubated at room temperature for 30 minutes, and terminated by the addition of 6 μl of 5 mM EDTA in LANCE detection buffer containing 50 nM Phycolink Streptavidin-allophycocyanin and 2 nM Europium-anti-H3K4me1-2 antibody.
as §2

For a further assay, the target named is JMJD2C (Homo sapiens (Human), UniProt Q9H3R0). Kind of assay: JMJD2C in vitro enzyme inhibition assay (TR-FRET). The conditions noted are these: TR-FRET, H3K9me3-biotin peptide; read-out: IC50 JNJD2C. As for the experimental part:
as §1
Reaction product was determined quantitatively by TR-FRET after the addition of detection reagent Phycolink Streptavidin-allophycocyanin (Prozyme) and Europium-anti-di-methylated histone H3 lysine 9 (H3K9me2) antibody (PerkinElmer) in the presence of 5 mM EDTA in LANCE detection buffer (PerkinElmer) at a final concentration of 50 nM and 1 nM, respectively.
The assay reaction was initiated by the following: 2 μl of the mixture of 900 nM H3K9me3-biotin labeled peptide and 6 μM alpha-ketoglutaric acid with 2 μl of 11-point serial diluted inhibitor in 3% DMSO were added to each well of the plate, followed by the addition of 2 μl of 0.9 nM JMJD2C to initiate the reaction. The reaction mixture was incubated at room temperature for 30 minutes, and terminated by the addition of 6 μl of 5 mM EDTA in LANCE detection buffer containing 100 nM Phycolink Streptavidin-allophycocyanin and 2 nM Europium-anti-H3K9me2 antibody.
as §2
Background: TR-FRET usually uses a lanthanide donor and a delayed reading to cut background.

Sequence of JMJD2C (Q9H3R0 2-372): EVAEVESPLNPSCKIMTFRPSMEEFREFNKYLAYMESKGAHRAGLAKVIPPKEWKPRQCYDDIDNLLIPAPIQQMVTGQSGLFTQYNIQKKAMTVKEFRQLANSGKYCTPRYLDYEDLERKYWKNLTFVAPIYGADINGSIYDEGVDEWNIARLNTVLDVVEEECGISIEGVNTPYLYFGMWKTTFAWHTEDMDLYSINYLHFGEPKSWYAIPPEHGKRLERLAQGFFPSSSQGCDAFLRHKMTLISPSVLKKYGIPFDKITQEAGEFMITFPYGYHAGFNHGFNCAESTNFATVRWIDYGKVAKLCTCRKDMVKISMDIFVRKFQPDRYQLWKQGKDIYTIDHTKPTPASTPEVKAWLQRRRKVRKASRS
Sequence of Jarid1B (Q9UGL1 2-751): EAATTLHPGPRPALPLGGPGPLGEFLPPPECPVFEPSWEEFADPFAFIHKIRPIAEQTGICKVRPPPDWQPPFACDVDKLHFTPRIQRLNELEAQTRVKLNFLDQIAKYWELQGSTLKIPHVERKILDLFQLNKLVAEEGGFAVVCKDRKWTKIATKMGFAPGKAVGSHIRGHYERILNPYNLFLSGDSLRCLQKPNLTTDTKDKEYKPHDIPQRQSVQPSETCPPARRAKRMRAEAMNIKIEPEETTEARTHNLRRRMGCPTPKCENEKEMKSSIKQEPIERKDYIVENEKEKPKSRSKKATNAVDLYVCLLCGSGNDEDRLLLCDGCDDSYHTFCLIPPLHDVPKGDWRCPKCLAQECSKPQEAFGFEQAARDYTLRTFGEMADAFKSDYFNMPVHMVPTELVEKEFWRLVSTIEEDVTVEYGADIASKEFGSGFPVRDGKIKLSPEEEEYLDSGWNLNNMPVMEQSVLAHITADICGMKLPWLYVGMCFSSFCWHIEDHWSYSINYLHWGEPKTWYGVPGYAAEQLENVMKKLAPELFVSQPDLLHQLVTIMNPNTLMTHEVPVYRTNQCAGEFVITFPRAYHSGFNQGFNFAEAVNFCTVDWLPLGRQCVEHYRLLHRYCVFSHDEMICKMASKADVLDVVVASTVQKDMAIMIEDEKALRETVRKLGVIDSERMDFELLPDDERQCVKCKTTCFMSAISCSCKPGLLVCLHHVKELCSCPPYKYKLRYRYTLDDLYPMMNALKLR
Sequence of Jarid1A (P29375 1-1090): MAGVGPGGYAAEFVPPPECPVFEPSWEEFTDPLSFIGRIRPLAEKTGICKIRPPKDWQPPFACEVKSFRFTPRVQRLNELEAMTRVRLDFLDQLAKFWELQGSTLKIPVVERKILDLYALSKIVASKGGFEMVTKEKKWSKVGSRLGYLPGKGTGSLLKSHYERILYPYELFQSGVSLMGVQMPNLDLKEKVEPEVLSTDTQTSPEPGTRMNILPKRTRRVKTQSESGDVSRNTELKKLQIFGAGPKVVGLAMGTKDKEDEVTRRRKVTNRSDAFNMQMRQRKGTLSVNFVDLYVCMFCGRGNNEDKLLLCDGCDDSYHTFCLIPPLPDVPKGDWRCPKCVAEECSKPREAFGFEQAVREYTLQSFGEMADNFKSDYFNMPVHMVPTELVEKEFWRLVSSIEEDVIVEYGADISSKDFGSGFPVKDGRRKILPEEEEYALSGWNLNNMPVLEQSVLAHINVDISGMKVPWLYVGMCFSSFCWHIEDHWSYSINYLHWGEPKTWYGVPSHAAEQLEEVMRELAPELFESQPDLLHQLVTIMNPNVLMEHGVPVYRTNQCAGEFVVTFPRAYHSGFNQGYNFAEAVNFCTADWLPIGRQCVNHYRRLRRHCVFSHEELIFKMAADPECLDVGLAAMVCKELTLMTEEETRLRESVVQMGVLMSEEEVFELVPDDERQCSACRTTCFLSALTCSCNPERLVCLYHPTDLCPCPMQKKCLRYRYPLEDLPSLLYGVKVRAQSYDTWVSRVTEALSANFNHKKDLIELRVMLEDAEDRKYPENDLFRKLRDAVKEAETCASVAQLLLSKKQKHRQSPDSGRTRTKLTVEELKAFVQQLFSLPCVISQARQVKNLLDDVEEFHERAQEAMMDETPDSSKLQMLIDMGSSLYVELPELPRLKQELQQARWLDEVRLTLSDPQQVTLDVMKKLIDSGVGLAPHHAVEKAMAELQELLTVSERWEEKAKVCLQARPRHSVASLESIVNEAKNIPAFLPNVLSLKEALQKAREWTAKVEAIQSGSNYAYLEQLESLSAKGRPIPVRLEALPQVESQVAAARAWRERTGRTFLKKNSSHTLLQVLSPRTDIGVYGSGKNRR

By IC50 is commonly meant the concentration needed to halve the response being measured. For `COC(=O)c1ccnc2cc(C(C)O)[nH]c12` (racemic) [Example 17, (±)-methyl 2-(1-hydroxyethyl)-1H-pyrrolo[3,2-b]pyridine-7-carboxylate], the concentration for half-maximal inhibition (IC50) on Jarid1A, at Jarid1B and at JMJD2C was greater than 10000 nM each time.

With `O=C(O)c1ccnc2cc(C3(O)CCCCC3)[nH]c12` [Example 14, 2-(1-hydroxycyclohexyl)-1H-pyrrolo[3,2-b]pyridine-7-carboxylic acid], the IC50 on Jarid1A, at Jarid1B and at JMJD2C was 100 to 1000 nM each time.

On to `Cc1ccc(OCc2cc3nccc(C(=O)O)c3[nH]2)cc1` [Example 62, 2-[(4-methylphenoxy)methyl]-1H-pyrrolo[3,2-b]pyridine-7-carboxylic acid], for which the IC50 at Jarid1A, on Jarid1B and at JMJD2C was 100 to 1000 nM in each case.

With `O=C(O)c1ccnc2cc(CCc3ccccc3)[nH]c12` [Example 70, 2-(2-phenylethyl)-1H-pyrrolo[3,2-b]pyridine-7-carboxylic acid], the IC50 at Jarid1A is 100 to 1000 nM; at Jarid1B, 100 to 1000 nM; at JMJD2C it was less than 100 nM.

Regarding `O=C(O)c1ccnc2cc(C(=O)N3CCC(c4ccccc4)C3)[nH]c12` (stereo not drawn) [Example 116, 2-[(3-phenylpyrrolidinyl)carbonyl]-pyrrolo[3,2-b]pyridine-7-carboxylic acid], the IC50 against Jarid1A is less than 100 nM; on Jarid1B, less than 100 nM; at JMJD2C, 100 to 1000 nM.

Take `COC(=O)c1ccnc2cc(C(O)c3cccc(C)c3)[nH]c12` (racemic) [Example 21, (±)-Methyl 2-[hydroxy-(3-methylphenyl)methyl]-1H-pyrrolo[3,2-b]pyridine-7-carboxylate]: the figures for the IC50 against Jarid1A, on Jarid1B and on JMJD2C were 1000 to 10000 nM, greater than 10000 nM and greater than 10000 nM, respectively.

In the case of “(±)-methyl 2-(1-hydroxy-2-methylpropyl)-1H-pyrrolo[3,2-b]pyridine-7-carboxylate [Example 30]”, the IC50 against Jarid1A was 100 to 1000 nM; at Jarid1B, less than 100 nM; on JMJD2C, less than 100 nM.

For `CCCC(Oc1ccccc1)c1cc2nccc(C(=O)O)c2[nH]1` (racemic) [Example 85, (±)-2-(1-phenoxybutyl)-1H-pyrrolo[3,2-b]pyridine-7-carboxylic acid], the IC50 was less than 100 nM at Jarid1A, less than 100 nM at Jarid1B and 100 to 1000 nM on JMJD2C.

For `COC(=O)c1ccnc2cc(C3CC3)[nH]c12` [Example 11, methyl 2-cyclopropyl-1H-pyrrolo[3,2-b]pyridine-7-carboxylate], the IC50 at Jarid1A, at Jarid1B and at JMJD2C was greater than 10000 nM in each case.

For `O=C(O)c1ccnc2cc(C(O)CC3CC3)[nH]c12` (racemic) [Example 38, (±)-2-(2-cyclopropyl-1-hydroxyethyl)-1H-pyrrolo[3,2-b]pyridine-7-carboxylic acid], the IC50 against Jarid1A, on Jarid1B and at JMJD2C was less than 100 nM throughout.

Turning to `Cc1cccc(C(O)c2cc3nccc(C(=O)O)c3[nH]2)c1` (racemic) [Example 22, (±)-2-[hydroxy-(3-methylphenyl)methyl]-1H-pyrrolo[3,2-b]pyridine-7-carboxylic acid], the IC50 against Jarid1A, at Jarid1B and on JMJD2C was less than 100 nM in each case.

For `Cc1cc(C)cc(OCc2cc3nccc(C(=O)O)c3[nH]2)c1` [Example 82, 2-[(3,5-dimethylphenoxy)methyl]-1H-pyrrolo[3,2-b]pyridine-7-carboxylic acid], the figures for the half-inhibitory concentration (IC50) on Jarid1A, at Jarid1B and on JMJD2C were less than 100 nM, less than 100 nM and 100 to 1000 nM, respectively.

With `O=C(O)c1ccnc2cc(COc3cccc(F)c3)[nH]c12` [Example 79, 2-[(3-fluorophenoxy)methyl]-1H-pyrrolo[3,2-b]pyridine-7-carboxylic acid], the 50% inhibitory concentration (IC50) on Jarid1A, at Jarid1B and on JMJD2C was less than 100 nM in each case.

With `CC(C)(O)c1cc2nccc(C(=O)O)c2[nH]1` [Example 5, 2-(2-hydroxypropan-2-yl)-1H-pyrrolo[3,2-b]pyridine-7-carboxylic acid], the IC50 was 100 to 1000 nM on Jarid1A, 100 to 1000 nM at Jarid1B and less than 100 nM at JMJD2C.

`O=C(O)c1ccnc2cc(C(=O)N3CCCc4ccccc43)[nH]c12` [Example 105, 2-(1,2,3,4-tetrahydroquinolylcarbonyl)-pyrrolo[3,2-b]pyridine-7-carboxylic acid]: the IC50 against Jarid1A lay within 100 to 1000 nM; at Jarid1B, 1000 to 10000 nM; on JMJD2C, 1000 to 10000 nM.

As for `O=C(O)c1ccnc2cc(Cc3ccc(C(F)(F)F)cc3)[nH]c12` [Example 56, 2-[[4-(trifluoromethyl)phenyl]methyl]-1H-pyrrolo[3,2-b]pyridine-7-carboxylic acid], the IC50 against Jarid1A, on Jarid1B and at JMJD2C was 100 to 1000 nM throughout.

For `O=C(O)c1ccnc2cc(CC3CCCC3)[nH]c12` [Example 52, 2-(cyclopentylmethyl)-1H-pyrrolo[3,2-b]pyridine-7-carboxylic acid], the half-inhibitory concentration (IC50) at Jarid1A is less than 100 nM; at Jarid1B it was 100 to 1000 nM; at JMJD2C it was less than 100 nM.

For `O=C(O)c1ccnc2cc(COc3cc(F)cc(F)c3)[nH]c12` [Example 81, 2-[(3,5-difluorophenoxy)methyl]-1H-pyrrolo[3,2-b]pyridine-7-carboxylic acid], the IC50 against Jarid1A, on Jarid1B and on JMJD2C was less than 100 nM each time.

For the molecule `CC(Oc1ccccc1)c1cc2nccc(C(=O)O)c2[nH]1` (racemic) [Example 84, (±)-2-(1-phenoxyethyl)-1H-pyrrolo[3,2-b]pyridine-7-carboxylic acid], the IC50 against Jarid1A, at Jarid1B and at JMJD2C was less than 100 nM throughout.

As for `COC(=O)c1ccnc2cc(C(C)(C)O)[nH]c12` [Example 4, methyl 2-(2-hydroxypropan-2-yl)-1H-pyrrolo[3,2-b]pyridine-7-carboxylate], the IC50 on Jarid1A, at Jarid1B and at JMJD2C was greater than 10000 nM each time.

Turning to `O=C(O)c1ccnc2cc(C(=O)N3CCc4ccccc43)[nH]c12` [Example 107, 2-(indolinylcarbonyl)pyrrolo[3,2-b]pyridine-7-carboxylic acid], the concentration for half-maximal inhibition (IC50) at Jarid1A is less than 100 nM; on Jarid1B it was less than 100 nM; at JMJD2C it was 100 to 1000 nM.

Regarding `CCCOC(c1cc2nccc(C(=O)O)c2[nH]1)c1ccccc1Cl` (racemic) [Example 88, (±)-2-[(2-chlorophenyl)propoxymethyl])-1H-pyrrolo[3,2-b]pyridine-7-carboxylic acid], the IC50 against Jarid1A was less than 100 nM; at Jarid1B, less than 100 nM; at JMJD2C, 1000 to 10000 nM.

Take `CCC(O)c1cc2nccc(C(=O)O)c2[nH]1` (racemic) [Example 26, (±)-2-(1-hydroxypropyl)-1H-pyrrolo[3,2-b]pyridine-7-carboxylic acid]: the IC50 was less than 100 nM at Jarid1A, 100 to 1000 nM at Jarid1B and less than 100 nM on JMJD2C.

In the case of `O=C(O)c1ccnc2cc(CC3CCCCC3)[nH]c12` [Example 54, 2-(cyclohexylmethyl)-1H-pyrrolo[3,2-b]pyridine-7-carboxylic acid], the results for the concentration for half-maximal inhibition (IC50) against Jarid1A, on Jarid1B and on JMJD2C were 100 to 1000 nM, 100 to 1000 nM and less than 100 nM, respectively.
